In paper PMC12209172, “Poly(ADP-ribose)polymerase 2 is zinc-dependent enzyme and nucleosome reorganizer” (Cellular and Molecular Life Sciences: CMLS, 2025):
Where “and” joins values, the source holds several entries; their conditions need not be identical. Equal values may be shown once. Read-outs that look alike come from different tables or passages of the source.

Assays:
PARP2 (Mus musculus) [1] = assay: EMSA; conditions: no divalent ions; EMSA: 2-3 nM nucleosomes, 5% PAGE in 0.2x TBE, 140 V, 4 C; divalent ions as given per row; binding buffer not in the material
PARP2 (Mus musculus) [2] = target: PARP2 (Mus musculus) (UniProt O88554); conditions: cited from earlier work
PARP2 (Mus musculus) [3] = target: PARP2 (Mus musculus) (UniProt O88554); conditions: cited from earlier work; remark: listed apart in the source
PARP2 [4] = target: T1, PARP2 (Mus musculus, UniProt O88554); assay: Western blot analysis of NAD+-dependent PARylation by PARP2 in PARP2-nucleosome complexes; assay type: biochemical; set-up: Recombinant mouse full-length PARP2 was obtained in the baculovirus expression system; made in house; host or cells: PARP2: Sf9 insect cells (baculovirus), gift of Prof; O. Lavrik; nucleosomes assembled in house; conditions: for effect of EDTA on PARylation: EDTA 10 mM
Procedure: Probes were subjected to electrophoresis in 4–12% bis-Tris gradient gel in the NuPAGE™ MES SDS Running Buffer at 130 V. […] The membrane was incubated for 60 min in the PBS-T solution supplemented with the 5% skimmed milk. Then the membrane was incubated with mouse monoclonal antibodies 10 H followed by incubation with the secondary anti-mouse antibodies conjugated with horseradish peroxidase (Bio-Rad, Hercules, CA, USA). The washing procedure was carried out after each step of incubation. Immunodetection was performed using the Super Signal West Pico Chemiluminescent Substrate (Thermo Fisher Scientific, Waltham, MA, USA) for 3 min. The Western blot experiments were performed in three independent repetitions.

PARP2 [5] = target: T1, PARP2; assay: Circular dichroism spectroscopy of PARP2 (BeStSel secondary structure analysis); set-up: Recombinant mouse full-length PARP2 was obtained in the baculovirus expression system; made in house; host or cells: Sf9 insect cells (baculovirus); gift of Prof; O. Lavrik; conditions: 0.3 mM Zn2+, 0.7 mM Ca2+ or 0.7 mM Mg2+
Procedure: (§1) CD spectra of proteins were recorded within the 190-250 nm spectral range with 0.2 nm step using Jasco-810 spectrophotometer (Jasco, Japan) and the quartz […]® cuvette of 0.1 mm thickness (Hellma, Germany. Secondary structure analysis was performed using BeStSel webserver. To improve the reliability of the analysis, the content of canonical secondary structures of various types was predicted for 3-6 independent measurements, and the values were averaged. The statistical significance of the secondary structure difference was determined using the multiple t-test.

[6] = target: T2, PARP2-nucleosome complexes (Mus musculus, UniProt O88554); assay: spFRET microscopy in solution of nucleosomes and PARP2-nucleosome complexes; conditions: for effect of ions on the nucleosome structure: NP nucleosomes without PARP2, 5 mM ions; for effect of ions on the structure of nucleosomes in PARP2-nucleosome complexes: Zn2+ 0.3 mM, Ca2+ 5 mM or Mg2+ 5 mM
T2 construct: Recombinant mouse full-length PARP2 was obtained in the baculovirus expression system; made in house; host or cells: PARP2: Sf9 insect cells (baculovirus), gift of Prof; O. Lavrik; nucleosomes assembled in house
Procedure: In the study of nucleosome-PARP2 interactions, nucleosomes (1-2 nM) were incubated with PARP2 (12.5-200 nM) in buffer A (50 mM Tris-HCl pH 7.5; 40 mM NaCl; 0.5 mM β-mercaptoethanol (β-ME); 0.1% NP40) at 25 °C for 30 min. When indicated, buffer A was supplemented with 50 μM - 5 mM ZnCl2, 5 mM CaCl2 or 5 mM MgCl2. […] […] measurements in solution were performed as described previously. Each measured single nucleosome was characterized by FRET between Cy3 and Cy5 labels calculated as a proximity ratio (EPR):1 [drawing 1] Where I3 and I5 are fluorescence intensities of Cy3 and Cy5, respectively, and coefficients 0.19 and 0.81 provide correction for the spectral cross-talk between Cy3 and Cy5 detection channels. EPR is a FRET efficiency not corrected for quantum yields of labels and an instrumentation factor. Relative frequency distributions of nucleosomes by EPR values, i.e. EPR profiles, (2000-5000 nucleosomes per experiment; 3 independent experiments) were plotted and further analyzed as a superposition of several normal (Gaussian) distributions for nucleosomes or nucleosome-PARP2 complexes. Since nucleosomes tend to aggregate when PARP2 is added (especially at high concentrations), treatment of signals measured from nucleosomes and their complexes included mandatory rejection of signals from any aggregates that are clearly recognized due to their slow diffusion rate and/or abnormally high fluorescence intensity.

WGR domain of PARP2 [7] = target: T3, WGR domain of PARP2 (Homo sapiens, UniProt Q9UGN5); assay: Tryptophan fluorescence spectroscopy of the WGR domain titrated with divalent cations (one site binding fit); conditions: for Kd: Trp fluorescence, one site binding fit, 10 mM HEPES pH 8.0, 150 mM NaCl, residual EDTA present, read-out: dissociation constant of the divalent cation-WGR domain complex; for effect of ions on intensity of tryptophan fluorescence of the WGR domain: WGR domain 5 µM
T3 construct: WGR domain of PARP2 (residues 77–220) into pET-15b-TEV expression vector; 6xHis (pET-15b-TEV) (N, cleaved yes); made in house; host or cells: Escherichia coli Rosetta2 (DE3) pLysS
T3 sequence (Q9UGN5 77-220): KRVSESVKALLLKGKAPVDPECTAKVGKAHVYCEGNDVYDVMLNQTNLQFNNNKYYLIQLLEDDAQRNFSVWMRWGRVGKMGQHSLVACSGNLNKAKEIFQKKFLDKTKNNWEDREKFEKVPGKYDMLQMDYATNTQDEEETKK
Procedure: Fluorescence spectra of Trp residues were measured in the 300–450 nm spectral range at the 270 nm excitation wavelengths using the Cary Eclipse spectrofluorometer (Varian/Agilent, USA).
Fluorescence of WGR domain was measured at 0.5 or 5 µM in a buffer containing 10 mM HEPES (pH 8.0), 150 mM NaCl and 0.73 or 7.3 µM EDTA, respectively. Solutions were complemented with ZnCl2 (0.2–308 µM) or MgCl2 (15–5000 µM), or CaCl2 (8–5000 µM) dissolved in a buffer containing 10 mM HEPES (pH 8.0), 150 mM NaCl. Intensity of the measured spectra was corrected for the concomitant dilution of the WGR domain. Integral intensities (Ifl.) of fluorescence spectra were averaged over three independent measurements (mean ± SEM) and used to plot the corresponding Ifl. vs. ion concentration graphs. Data were fitted with the one site binding equation:2 [drawing 2]
Where C is the concentration of divalent cations, Kd is a dissociation constant of the complex, Im and Ifl0 are maximal and initial values of Ifl., respectively.

WGR domain of PARP2 [8] = target: T3, WGR domain of PARP2; assay: Circular dichroism spectroscopy of the WGR domain (BeStSel secondary structure analysis); set-up: content of a-helix in the WGR domain / content of b-sheet in the WGR domain / content of turn in the WGR domain / content of random coil in the WGR domain: unit not given here; conditions: for content of a-helix in the WGR domain / content of b-sheet in the WGR domain / content of random coil in the WGR domain / content of turn in the WGR domain: 5 mM ion, independent measurements
Procedure: as §1

[9] = target: Nucleosome assembled on a fluorescently labelled 187-bp DNA template (603 positioning sequence) with histones of chicken donor chromatin (chicken); assay: native gel or EMSA + other: single particle fluorescence intensity analysis in the gel; nucleosomes NP with PARP2 (50 nM) in buffer A with 0.3 mM Zn2+; native PAGE
NP nucleosomes = target: T4, NP nucleosomes (Mus musculus, UniProt O88554); assay: EMSA of PARP2-nucleosome complexes (non-denaturing PAGE, FRET-in-gel); assay type: binding, chicken
T4 construct: Recombinant mouse full-length PARP2 was obtained in the baculovirus expression system; made in house; host or cells: PARP2: Sf9 insect cells (baculovirus), gift of Prof; O. Lavrik; nucleosomes assembled in house
Procedure: Sample preparation for EMSA was the same as for spFRET microscopy, although a slightly higher concentration of nucleosomes (2–3 nM) was used. The PARP2-nucleosome complexes were subjected to 5% polyacrylamide gel in 0.2×TBE buffer. Electrophoresis was performed under native conditions at 140 V, + 4 °C for ∼1.5 h. The gels were scanned using Amersham Typhoon RGB imager (Cytiva, Sweden). Fluorescence was excited in the gel at the 532 nm wavelength and recorded in the 570–610 nm (Cy3 signal) and 650–700 nm (FRET signal of Cy5) spectral regions. The resulting images were obtained in green (Cy3 signal) and red (FRET signal of Cy5) colors and merged.

nucleosome = conditions: read-out: Kd of PARP2-nucleosome complex, cited from earlier work
DNA = conditions: read-out: Kd of PARP2 complex with DNA, cited from earlier work

## Np nucleosome (s603-42A, 187 bp DNA)
PARP2 (Mus musculus) [1]
  K half: 40 nM

## PARP2 (from UniProt O88554)
PARP2 (Mus musculus) [2]
  Kd: 101 nM
PARP2 (Mus musculus) [3]
  Kd: 152 nM

## [Cl-].[Cl-].[Mg+2] [Mg2+, MgCl2]
PARP2 [4]; Mg2+ 5 mM or Zn2+ 0.3 mM, PARP2 100 nM, nucleosomes 3 nM, NAD+ 0-5 µM
  effect of ions on efficiency of PARP2-mediated PARylation: increase
PARP2 [5]
  effect of ions on the CD spectrum / conformation of PARP2: similar
[6]
  effect of ions on the nucleosome structure: minimally affect
[6]; PARP2 50 nM
  effect of ions on the structure of nucleosomes in PARP2-nucleosome complexes: not changed
WGR domain of PARP2 [7]
  Kd: 180000 ± 80000 nM
  effect of ions on intensity of tryptophan fluorescence of the WGR domain: considerably lower than the effect of Zn^2+ ions
WGR domain of PARP2 [8]
  effect of ions on the structure of the WGR domain (CD): only minimal changes
  content of a-helix in the WGR domain: 13.8 and 13.1 and 13.6
  content of b-sheet in the WGR domain: 27.8 and 25.8 and 28.5
  content of random coil in the WGR domain: 46 and 48.5 and 46.1
  content of turn in the WGR domain: 12.3 and 12.6 and 11.7

## [Ca+2].[Cl-].[Cl-] [Ca2+, CaCl2]
PARP2 [5]
  effect of ions on the CD spectrum / conformation of PARP2: similar
[6]
  effect of ions on the nucleosome structure: minimally affect
[6]; PARP2 50 nM
  effect of ions on the structure of nucleosomes in PARP2-nucleosome complexes: not changed
WGR domain of PARP2 [7]
  Kd: 29000 ± 14000 nM
  effect of ions on intensity of tryptophan fluorescence of the WGR domain: considerably lower than the effect of Zn^2+ ions
WGR domain of PARP2 [8]
  effect of ions on the structure of the WGR domain (CD): only minimal changes
  content of a-helix in the WGR domain: 14.9 and 10.9 and 11.1
  content of b-sheet in the WGR domain: 30.1 and 29.5 and 31.3
  content of random coil in the WGR domain: 43.7 and 47.2 and 46.3
  content of turn in the WGR domain: 11.4 and 12.5 and 11.3

## Recombinant mouse full-length PARP2 (poly(ADP-ribose)polymerase 2) (from UniProt O88554 1-559) (enzyme)
[9]
  stoichiometry N (PARP2 per nucleosome): 1 and 2

## O=C(O)CN(CCN(CC(=O)O)CC(=O)O)CC(=O)O [EDTA, ethylenediaminetetraacetic acid]
PARP2 [4]; Mg2+ 5 mM
  effect of EDTA on PARylation: fully reverses the effect of Mg^2+ ions
PARP2 [4]; Zn2+ 0.3 mM
  effect of EDTA on PARylation: strongly enhances the efficiency of PARylation
PARP2 [4]; absence of divalent ions
  effect of EDTA on PARylation: does not affect PARylation
[6]; EDTA 10 mM, Zn2+ 0.15 mM, PARP2 50 nM
  effect of EDTA on PARP2-nucleosome complexes preformed in the presence of Zn2+: does not reverse the changes in the nucleosome structure

B1: PARP2: Recombinant mouse full-length PARP2 obtained in the baculovirus expression system using Sf9 insect cells (protein)
chain: MAPRRQRSGSGRRVLNEAKKVDNGNKATEDDSPPGKKMRTCQRKGPMAGGKDADRTKDNRDSVKTLLLKGKAPVDPECAAKLGKAHVYCEGDDVYDVMLNQTNLQFNNNKYYLIQLLEDDAQRNFSVWMRWGRVGKTGQHSLVTCSGDLNKAKEIFQKKFLDKTKNNWEDRENFEKVPGKYDMLQMDYAASTQDESKTKEEETLKPESQLDLRVQELLKLICNVQTMEEMMIEMKYDTKRAPLGKLTVAQIKAGYQSLKKIEDCIRAGQHGRALVEACNEFYTRIPHDFGLSIPPVIRTEKELSDKVKLLEALGDIEIALKLVKSERQGLEHPLDQHYRNLHCALRPLDHESNEFKVISQYLQSTHAPTHKDYTMTLLDVFEVEKEGEKEAFREDLPNRMLLWHGSRLSNWVGILSHGLRVAPPEAPITGYMFGKGIYFADMSSKSANYCFASRLKNTGLLLLSEVALGQCNELLEANPKAQGLLRGKHSTKGMGKMAPSPAHFITLNGSTVPLGPASDTGILNPEGYTLNYNEFIVYSPNQVRMRYLLKIQFNFLQLW
NP nucleosomes; absence of divalent ions
  PARP2 concentration at which complexes with nucleosomes are formed: ≥ 12.5 nM
NP nucleosomes; absence of divalent ions, read-out: PARP2 concentration at ~50% decrease in the number of free nucleosomes (50% of nucleosomes in complexes)
  EC50: 40 ± 10 nM
NP nucleosomes; presence of 0.3 mM Zn2+
  PARP2 concentration above which aggregation prevents separation of complexes in the gel: above 50 nM
nucleosome; ref 28
  Kd: 150 nM
nucleosome; ref 59
  Kd: 76 nM
DNA; 18 bp duplex oligonucleotides
  Kd: 11 nM
DNA; 147 bp DNA having a gap
  Kd: 58 nM
DNA; 147 bp intact DNA
  Kd: 840 nM
